From ChEMBL document CHEMBL4507259 (2021)

How the values were obtained:
[1] = molecular target: Beta-adrenergic receptor kinase 1 (Homo sapiens) (UniProt P25098); settings: Compound concentration 1000.0 nM
[2] = molecular target: Vascular endothelial growth factor receptor 3 (Homo sapiens) (UniProt P35916); settings: Compound concentration 1000.0 nM
[3] = molecular target: Dual specificity protein kinase CLK1 (Homo sapiens) (UniProt P49759); settings: Compound concentration 1000.0 nM
[4] = molecular target: Rho-associated protein kinase 2 (Homo sapiens) (UniProt O75116); settings: Compound concentration 1000.0 nM
[5] = molecular target: BDNF/NT-3 growth factors receptor (Homo sapiens) (UniProt Q16620); settings: Compound concentration 1000.0 nM
[6] = molecular target: T1, Alpha-2B adrenergic receptor (Homo sapiens) (UniProt P18089); test: alpha 2B (h) CEREP ligand profiling; settings: filed as antagonist, Compound concentration 10.0 uM
T1 sequence (whole entry): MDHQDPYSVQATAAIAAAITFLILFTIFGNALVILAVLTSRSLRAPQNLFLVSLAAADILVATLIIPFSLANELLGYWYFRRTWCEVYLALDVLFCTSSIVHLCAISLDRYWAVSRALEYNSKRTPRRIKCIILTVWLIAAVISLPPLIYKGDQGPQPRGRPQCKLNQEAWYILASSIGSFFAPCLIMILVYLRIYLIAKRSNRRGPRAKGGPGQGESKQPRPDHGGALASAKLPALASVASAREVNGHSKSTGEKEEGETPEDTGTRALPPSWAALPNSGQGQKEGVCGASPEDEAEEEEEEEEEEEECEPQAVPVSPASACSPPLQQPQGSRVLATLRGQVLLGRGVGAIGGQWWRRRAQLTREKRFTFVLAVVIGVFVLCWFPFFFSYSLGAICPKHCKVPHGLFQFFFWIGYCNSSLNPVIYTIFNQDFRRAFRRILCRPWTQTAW

[7] = molecular target: 5-hydroxytryptamine receptor 4 (Homo sapiens) (UniProt Q13639); test: 5-HT4e (h) CEREP ligand profiling; settings: filed as antagonist, Compound concentration 10.0 uM
[8] = molecular target: Ephrin type-A receptor 7 (Homo sapiens) (UniProt Q15375); settings: Compound concentration 1000.0 nM
[9] = molecular target: T2, Muscarinic acetylcholine receptor M2 (Homo sapiens) (UniProt P08172); test: M2 (h) CEREP ligand profiling; settings: filed as antagonist, Compound concentration 10.0 uM
T2 sequence (whole entry): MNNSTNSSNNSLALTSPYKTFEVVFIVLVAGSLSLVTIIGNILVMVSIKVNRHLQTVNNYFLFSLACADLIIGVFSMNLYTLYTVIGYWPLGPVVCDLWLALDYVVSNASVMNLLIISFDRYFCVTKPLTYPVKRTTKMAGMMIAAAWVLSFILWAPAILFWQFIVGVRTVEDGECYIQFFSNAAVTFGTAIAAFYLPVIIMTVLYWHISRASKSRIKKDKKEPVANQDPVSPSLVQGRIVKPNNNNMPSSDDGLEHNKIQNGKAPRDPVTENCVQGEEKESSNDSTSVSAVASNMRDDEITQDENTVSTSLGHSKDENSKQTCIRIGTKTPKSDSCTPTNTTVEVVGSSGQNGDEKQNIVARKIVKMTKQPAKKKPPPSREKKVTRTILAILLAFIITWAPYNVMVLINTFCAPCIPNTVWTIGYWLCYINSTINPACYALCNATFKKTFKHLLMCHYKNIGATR

[10] = molecular target: Muscarinic acetylcholine receptor M3 (Homo sapiens) (UniProt P20309); settings: Compound concentration 10.0 uM
[11] = molecular target: Dual specificity mitogen-activated protein kinase kinase 6 (Homo sapiens) (UniProt P52564); settings: Compound concentration 1000.0 nM
[12] = molecular target: Serine/threonine-protein kinase ICK (Homo sapiens) (UniProt Q9UPZ9); settings: Compound concentration 1000.0 nM
[13] = molecular target: NT-3 growth factor receptor (Homo sapiens) (UniProt Q16288); settings: Compound concentration 1000.0 nM
NT-3 growth factor receptor (Homo sapiens), sequence (Q16288 32-839 limits assumed): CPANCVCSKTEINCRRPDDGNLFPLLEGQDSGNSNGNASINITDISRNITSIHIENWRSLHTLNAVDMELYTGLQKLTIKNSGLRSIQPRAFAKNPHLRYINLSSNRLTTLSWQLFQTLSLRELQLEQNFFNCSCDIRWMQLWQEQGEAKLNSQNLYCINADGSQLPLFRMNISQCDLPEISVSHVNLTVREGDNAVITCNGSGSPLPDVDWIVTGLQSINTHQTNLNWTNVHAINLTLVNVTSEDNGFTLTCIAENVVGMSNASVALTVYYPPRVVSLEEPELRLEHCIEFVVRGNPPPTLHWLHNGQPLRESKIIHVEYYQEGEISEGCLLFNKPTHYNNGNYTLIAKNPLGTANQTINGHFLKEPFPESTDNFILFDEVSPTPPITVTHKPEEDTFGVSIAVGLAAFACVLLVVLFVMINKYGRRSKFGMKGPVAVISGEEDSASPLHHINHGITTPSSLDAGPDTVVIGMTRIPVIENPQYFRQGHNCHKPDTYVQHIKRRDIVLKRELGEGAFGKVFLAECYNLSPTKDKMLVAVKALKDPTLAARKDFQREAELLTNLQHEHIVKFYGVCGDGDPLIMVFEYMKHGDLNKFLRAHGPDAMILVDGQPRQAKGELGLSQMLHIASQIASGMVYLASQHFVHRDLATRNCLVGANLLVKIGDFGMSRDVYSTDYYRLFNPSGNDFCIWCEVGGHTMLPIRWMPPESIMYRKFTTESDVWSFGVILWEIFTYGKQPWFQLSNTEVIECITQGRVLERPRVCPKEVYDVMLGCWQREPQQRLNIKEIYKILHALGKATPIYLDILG

[14] = molecular target: T3, Muscarinic acetylcholine receptor M4 (Homo sapiens) (UniProt P08173); settings: Compound concentration 10.0 uM
T3 sequence (whole entry): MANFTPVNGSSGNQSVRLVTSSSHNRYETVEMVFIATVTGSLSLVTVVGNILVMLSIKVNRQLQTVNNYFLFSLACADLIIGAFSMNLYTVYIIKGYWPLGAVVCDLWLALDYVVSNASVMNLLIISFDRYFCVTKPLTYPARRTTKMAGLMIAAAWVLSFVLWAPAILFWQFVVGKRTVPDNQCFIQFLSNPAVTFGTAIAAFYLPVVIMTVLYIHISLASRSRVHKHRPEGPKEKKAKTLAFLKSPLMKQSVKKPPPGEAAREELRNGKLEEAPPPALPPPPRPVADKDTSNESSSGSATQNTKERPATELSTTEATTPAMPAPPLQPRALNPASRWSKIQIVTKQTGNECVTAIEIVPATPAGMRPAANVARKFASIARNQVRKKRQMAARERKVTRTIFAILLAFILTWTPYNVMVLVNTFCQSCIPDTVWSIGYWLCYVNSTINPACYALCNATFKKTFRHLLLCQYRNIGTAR

[15] = test system: Serine/threonine-protein kinase B-raf (Homo sapiens), P15056 [V600E]; settings: Compound concentration 1000.0 nM
[16] = molecular target: SNF-related serine/threonine-protein kinase (Homo sapiens) (UniProt Q9NRH2); settings: Compound concentration 1000.0 nM
[17] = molecular target: Protein kinase C eta type (Homo sapiens) (UniProt P24723); settings: Compound concentration 1000.0 nM
Protein kinase C eta type (Homo sapiens), sequence (P24723 whole entry): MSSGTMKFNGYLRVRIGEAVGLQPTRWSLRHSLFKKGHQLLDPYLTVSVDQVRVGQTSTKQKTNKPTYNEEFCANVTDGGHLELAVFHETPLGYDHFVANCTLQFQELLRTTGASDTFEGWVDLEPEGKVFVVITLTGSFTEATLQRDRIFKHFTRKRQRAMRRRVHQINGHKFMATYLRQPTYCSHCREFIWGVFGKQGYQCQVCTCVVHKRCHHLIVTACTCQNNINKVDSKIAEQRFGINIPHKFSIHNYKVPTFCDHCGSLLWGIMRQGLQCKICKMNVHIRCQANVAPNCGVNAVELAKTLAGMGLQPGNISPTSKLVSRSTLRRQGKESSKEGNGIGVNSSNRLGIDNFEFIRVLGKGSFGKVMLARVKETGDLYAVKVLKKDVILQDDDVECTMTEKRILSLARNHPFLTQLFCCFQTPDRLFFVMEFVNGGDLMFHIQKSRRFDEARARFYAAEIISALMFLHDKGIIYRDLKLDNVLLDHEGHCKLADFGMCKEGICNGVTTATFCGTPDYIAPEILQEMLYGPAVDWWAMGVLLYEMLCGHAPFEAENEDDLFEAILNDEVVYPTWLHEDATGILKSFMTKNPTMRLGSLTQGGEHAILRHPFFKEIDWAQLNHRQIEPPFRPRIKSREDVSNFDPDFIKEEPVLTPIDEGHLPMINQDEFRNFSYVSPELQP

[18] = molecular target: Mitogen-activated protein kinase 7 (Homo sapiens) (UniProt Q13164); settings: Compound concentration 1000.0 nM
[19] = molecular target: Myosin light chain kinase, smooth muscle (Homo sapiens) (UniProt Q15746); settings: Compound concentration 1000.0 nM
Myosin light chain kinase, smooth muscle (Homo sapiens), sequence (Q15746 whole entry): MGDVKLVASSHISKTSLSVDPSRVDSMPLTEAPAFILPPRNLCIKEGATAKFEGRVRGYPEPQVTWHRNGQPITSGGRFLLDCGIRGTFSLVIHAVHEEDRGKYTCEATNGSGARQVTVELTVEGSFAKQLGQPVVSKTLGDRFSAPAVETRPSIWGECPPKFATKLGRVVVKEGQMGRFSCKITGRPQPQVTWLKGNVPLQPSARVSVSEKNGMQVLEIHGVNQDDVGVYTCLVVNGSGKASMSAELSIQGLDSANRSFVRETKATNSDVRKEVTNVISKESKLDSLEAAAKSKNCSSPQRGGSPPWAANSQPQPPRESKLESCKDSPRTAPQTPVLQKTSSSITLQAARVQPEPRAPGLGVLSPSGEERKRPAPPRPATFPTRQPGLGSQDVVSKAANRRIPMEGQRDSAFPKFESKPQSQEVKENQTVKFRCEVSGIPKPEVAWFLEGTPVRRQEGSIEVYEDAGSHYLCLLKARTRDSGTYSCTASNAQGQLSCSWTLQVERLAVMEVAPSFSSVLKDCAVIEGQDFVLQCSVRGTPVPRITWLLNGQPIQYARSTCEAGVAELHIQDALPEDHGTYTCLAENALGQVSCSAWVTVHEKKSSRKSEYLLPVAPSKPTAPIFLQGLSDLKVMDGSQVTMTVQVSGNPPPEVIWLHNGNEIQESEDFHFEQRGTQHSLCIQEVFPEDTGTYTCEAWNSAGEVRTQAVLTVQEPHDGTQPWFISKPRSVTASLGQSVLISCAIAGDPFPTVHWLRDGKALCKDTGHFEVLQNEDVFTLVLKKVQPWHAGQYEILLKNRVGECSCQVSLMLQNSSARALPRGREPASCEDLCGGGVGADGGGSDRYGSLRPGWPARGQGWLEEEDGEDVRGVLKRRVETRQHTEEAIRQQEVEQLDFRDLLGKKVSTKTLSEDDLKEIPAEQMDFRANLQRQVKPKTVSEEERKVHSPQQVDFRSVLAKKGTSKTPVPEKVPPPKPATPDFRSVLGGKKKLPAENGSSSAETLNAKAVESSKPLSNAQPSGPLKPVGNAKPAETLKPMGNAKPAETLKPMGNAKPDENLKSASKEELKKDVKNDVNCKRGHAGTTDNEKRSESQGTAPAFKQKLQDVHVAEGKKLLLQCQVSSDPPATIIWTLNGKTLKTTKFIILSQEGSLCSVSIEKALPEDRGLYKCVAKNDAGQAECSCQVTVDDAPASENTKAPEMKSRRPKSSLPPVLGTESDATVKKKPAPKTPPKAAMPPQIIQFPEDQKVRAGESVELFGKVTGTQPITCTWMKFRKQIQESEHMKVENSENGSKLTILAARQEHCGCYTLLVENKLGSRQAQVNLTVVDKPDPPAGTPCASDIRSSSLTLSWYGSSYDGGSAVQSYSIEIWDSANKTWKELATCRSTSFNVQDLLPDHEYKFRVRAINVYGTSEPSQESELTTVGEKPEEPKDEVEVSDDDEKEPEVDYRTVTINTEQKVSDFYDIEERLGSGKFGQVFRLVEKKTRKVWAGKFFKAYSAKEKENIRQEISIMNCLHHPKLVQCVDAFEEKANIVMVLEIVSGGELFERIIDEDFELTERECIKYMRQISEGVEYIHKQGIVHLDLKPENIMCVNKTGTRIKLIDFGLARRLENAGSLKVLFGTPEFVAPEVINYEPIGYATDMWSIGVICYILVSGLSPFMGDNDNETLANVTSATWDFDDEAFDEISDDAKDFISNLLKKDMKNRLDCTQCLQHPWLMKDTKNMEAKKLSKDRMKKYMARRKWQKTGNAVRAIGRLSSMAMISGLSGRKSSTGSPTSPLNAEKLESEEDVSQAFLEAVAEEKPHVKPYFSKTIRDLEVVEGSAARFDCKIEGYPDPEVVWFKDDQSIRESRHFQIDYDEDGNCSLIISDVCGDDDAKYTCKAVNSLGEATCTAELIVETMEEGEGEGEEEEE

[20] = molecular target: Platelet-derived growth factor receptor alpha (Homo sapiens) (UniProt P16234); settings: Compound concentration 1000.0 nM
[21] = molecular target: Activin receptor type-2B (Homo sapiens) (UniProt Q13705); settings: Compound concentration 1000.0 nM
[22] = molecular target: Serine/threonine-protein kinase SIK3 (Homo sapiens) (UniProt Q9Y2K2); settings: Compound concentration 1000.0 nM
[23] = molecular target: Tyrosine-protein kinase receptor TYRO3 (Homo sapiens) (UniProt Q06418); settings: Compound concentration 1000.0 nM
Tyrosine-protein kinase receptor TYRO3 (Homo sapiens), sequence (Q06418 whole entry): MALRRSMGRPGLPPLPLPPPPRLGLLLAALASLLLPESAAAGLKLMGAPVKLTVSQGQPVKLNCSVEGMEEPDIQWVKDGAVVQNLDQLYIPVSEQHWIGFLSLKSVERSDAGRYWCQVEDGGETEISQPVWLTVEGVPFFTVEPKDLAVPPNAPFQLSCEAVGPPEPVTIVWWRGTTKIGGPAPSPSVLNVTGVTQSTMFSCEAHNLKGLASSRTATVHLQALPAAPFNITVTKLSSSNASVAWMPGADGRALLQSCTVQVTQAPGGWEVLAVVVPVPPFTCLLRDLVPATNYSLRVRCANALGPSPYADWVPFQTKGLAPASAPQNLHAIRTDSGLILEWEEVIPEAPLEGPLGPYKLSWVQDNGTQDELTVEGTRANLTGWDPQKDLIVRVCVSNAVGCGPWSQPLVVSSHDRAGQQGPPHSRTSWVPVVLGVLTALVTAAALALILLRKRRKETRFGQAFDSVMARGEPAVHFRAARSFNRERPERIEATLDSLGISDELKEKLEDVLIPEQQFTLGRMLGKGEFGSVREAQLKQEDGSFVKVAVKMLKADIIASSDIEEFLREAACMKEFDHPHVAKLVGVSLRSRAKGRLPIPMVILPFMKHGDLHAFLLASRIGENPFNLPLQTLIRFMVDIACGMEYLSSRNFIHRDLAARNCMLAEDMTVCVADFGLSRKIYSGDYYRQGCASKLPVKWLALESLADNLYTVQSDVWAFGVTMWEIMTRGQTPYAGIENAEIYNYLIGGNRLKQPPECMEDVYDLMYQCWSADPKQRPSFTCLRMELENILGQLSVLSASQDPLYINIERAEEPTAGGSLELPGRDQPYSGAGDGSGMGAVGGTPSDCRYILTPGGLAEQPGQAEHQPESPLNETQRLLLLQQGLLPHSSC

[24] = molecular target: Ephrin type-B receptor 6 (Homo sapiens) (UniProt O15197); settings: Compound concentration 1000.0 nM
[25] = molecular target: Serine/threonine-protein kinase MRCK gamma (Homo sapiens) (UniProt Q6DT37); settings: Compound concentration 1000.0 nM
[26] = molecular target: Tumor necrosis factor (Homo sapiens) (UniProt P01375); test: TNF-alpha (h) CEREP ligand profiling; settings: filed as agonist, Compound concentration 10.0 uM
Tumor necrosis factor (Homo sapiens), sequence (P01375 whole entry): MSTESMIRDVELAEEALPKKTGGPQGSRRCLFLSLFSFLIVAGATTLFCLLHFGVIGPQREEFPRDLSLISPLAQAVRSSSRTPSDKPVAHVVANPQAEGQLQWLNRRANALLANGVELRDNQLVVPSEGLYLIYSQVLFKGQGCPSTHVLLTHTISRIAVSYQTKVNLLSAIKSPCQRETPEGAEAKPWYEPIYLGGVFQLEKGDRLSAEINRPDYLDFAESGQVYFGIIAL

Dual specificity protein kinase CLK1 (Homo sapiens), sequence (P49759 whole entry, looked up): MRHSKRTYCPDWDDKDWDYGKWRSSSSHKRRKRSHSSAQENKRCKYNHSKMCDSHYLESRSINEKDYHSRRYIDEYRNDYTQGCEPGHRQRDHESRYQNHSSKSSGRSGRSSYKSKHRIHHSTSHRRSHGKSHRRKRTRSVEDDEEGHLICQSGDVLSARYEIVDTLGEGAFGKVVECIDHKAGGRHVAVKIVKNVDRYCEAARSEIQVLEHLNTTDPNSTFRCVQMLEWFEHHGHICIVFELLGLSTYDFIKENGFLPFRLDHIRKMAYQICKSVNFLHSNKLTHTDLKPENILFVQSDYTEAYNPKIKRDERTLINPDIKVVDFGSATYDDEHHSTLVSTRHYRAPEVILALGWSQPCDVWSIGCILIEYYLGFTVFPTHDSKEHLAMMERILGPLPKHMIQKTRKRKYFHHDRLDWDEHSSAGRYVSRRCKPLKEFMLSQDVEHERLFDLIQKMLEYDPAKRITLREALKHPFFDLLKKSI

Row | SMILES | residual activity [1] [%] | residual activity [2] [%] | residual activity [3] [%] | residual activity [4] [%] | residual activity [5] [%] | inhibition [6] [%] | inhibition [7] [%] | residual activity [8] [%] | inhibition [9] [%] | inhibition [10] [%] | residual activity [11] [%] | residual activity [12] [%] | residual activity [13] [%] | inhibition [14] [%] | residual activity [15] [%] | residual activity [16] [%] | residual activity [17] [%] | residual activity [18] [%] | residual activity [19] [%] | residual activity [20] [%] | other results
1 | CNC(=O)Nc1ccc2c(c1)[C@@]1(CC2)OC(=O)N(CC(=O)N(Cc2ccc(F)cc2)[C@@H](C)C(F)(F)F)C1=O [A-486] | 76 | 100 | 82 | 95 | 89 | 4 | 9 | 100 | -8 | 8.23 | 100 | 67 | 82 | 30.4 | 96 | 100 | 87 | 85 | 88 | 83 | residual activity [21]: 100%; residual activity [22]: 100%; residual activity [23]: 70%; residual activity [24]: 0%; residual activity [25]: 88%; inhibition [26]: 1%
2 | CNC(=O)Nc1ccc2c(c1)CC[C@@]21OC(=O)N(CC(=O)N(Cc2ccc(F)cc2)[C@@H](C)C(F)(F)F)C1=O [A-485] | 74 | 89 | 69 | 96 | 95 | -4 | 10 | 88 | -5 | 9.06 | 100 | 72 | 84 | 11.2 | 100 | 96 | 93 | 60 | 66 | 93 | residual activity [21]: 96%; residual activity [22]: 94%; residual activity [23]: 81%; residual activity [24]: 96%; residual activity [25]: 88%; inhibition [26]: 1%
